This test has as its system CD2F1 mice, L1210 leukemia ip, survival T/C. Description: NCI In Vivo Anticancer Drug Screen. Data for tumor model L1210 Leukemia (intraperitoneal) in CD2F1 (CDF1) mice. As to conditions: endpoint: mean survival time, higher = longer survival. The method, boiled down: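 Activity against a transplanted murine tumor was judged by comparing the compound group with a vehicle group. The outcome in the treated animals was divided by that in the controls.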

[1] abbreviates: dose: 100.0 mg/kg/injection, schedule: Q01DX001 (ip), vehicle: saline with Tween-80.
Setting [2] is: dose: 200.0 mg/kg/injection, schedule: Q01DX001 (ip), vehicle: saline with Tween-80.
Where [3] appears, read: dose: 400.0 mg/kg/injection, schedule: Q01DX001 (ip), vehicle: saline with Tween-80.
[4] abbreviates: dose: 100.0 mg/kg/injection, schedule: Q01DX009 (ip), vehicle: saline with Tween-80.
Setting [5] is: dose: 100.0 mg/kg/injection, schedule: Q04DX003 (ip), vehicle: saline with Tween-80.
The mark [6] stands for this setting: dose: 200.0 mg/kg/injection, schedule: Q01DX009 (ip), vehicle: saline with Tween-80.
The mark [7] stands for this setting: dose: 200.0 mg/kg/injection, schedule: Q04DX003 (ip), vehicle: saline with Tween-80.
Where [8] appears, read: dose: 400.0 mg/kg/injection, schedule: Q01DX009 (ip), vehicle: saline with Tween-80.
Setting [9] is: dose: 400.0 mg/kg/injection, schedule: Q04DX003 (ip), vehicle: saline with Tween-80.
Where [10] appears, read: dose: 0.65 mg/kg/injection, schedule: Q01DX009 (ip), vehicle: saline.
The mark [11] stands for this setting: dose: 1.08 mg/kg/injection, schedule: Q01DX009 (ip), vehicle: saline.
Where [12] appears, read: dose: 100.0 mg/kg/injection, schedule: Q01DX009 (ip), vehicle: saline.
The mark [13] stands for this setting: dose: 200.0 mg/kg/injection, schedule: Q01DX009 (ip), vehicle: saline.
[14] abbreviates: dose: 400.0 mg/kg/injection, schedule: Q01DX009 (ip), vehicle: saline.
Setting [15] is: dose: 75.0 mg/kg/injection, schedule: Q01DX001 (ip), vehicle: saline.
[16] abbreviates: dose: 150.0 mg/kg/injection, schedule: Q01DX001 (ip), vehicle: saline.
The mark [17] stands for this setting: dose: 300.0 mg/kg/injection, schedule: Q01DX001 (ip), vehicle: saline.

The values that follow come from PubChem BioAssay AID256 (DTP/NCI, 2004).

“And” between values parts separate entries of the source, which are not always exact repeats. Equal values may be shown once. Inconclusive results and toxic doses are left out.

Take `c1ccc([P+](c2ccccc2)(c2ccccc2)C2OCCO2)cc1`: under setting [1], the T/C was 112 % of control.

Take `NS(=O)(=O)c1cccc([N+](=O)[O-])c1`: the T/C is, setting by setting: under setting [1], 95 % of control; under setting [2], 92 % of control; under setting [3], 97 % of control.

Consider `O=c1[nH]c(=O)n(CCCCOc2ccccc2)cc1-c1ccccc1`, for which the T/C reads like this: under setting [1], 98 % of control; under setting [2], 101 % of control; under setting [3], 96 % of control.

Consider `C=C1C(=O)O[C@H]2C[C@@H](C)[C@@H]3[C@@H](O)C[C@@H](O)[C@@]3(C)C[C@H]12`, for which the T/C was 100 % of control under setting [4]; 102 % of control under setting [5]; 94 % of control under setting [6]; 96 % of control under setting [7]; 100 % of control under setting [8]; 103 % of control under setting [9].

Turning to `COc1cccc2c1C(=O)c1c(O)c3c(c(O)c1C2=O)C[C@@](O)(C(C)O)C[C@@H]3OC1CC(N)C(O)C(C)O1` (stereo not given in full), the T/C is 112 % of control under setting [10]; 113 % of control under setting [11]; 120 % of control (dose: 3.0 mg/kg/injection, schedule: Q04DX003 (ip), vehicle: saline); 96 % of control (dose: 13.3 mg/kg/injection, schedule: Q01DX009 (ip), vehicle: saline).

In the case of `O=[N+]([O-])c1ccc(N/N=C(\CI)c2ccccc2)c([N+](=O)[O-])c1`, the T/C reads like this: (dose: 100.0 mg/kg/injection, schedule: Q04DX003 (ip), vehicle: saline sonified) 97 % of control; (dose: 200.0 mg/kg/injection, schedule: Q04DX003 (ip), vehicle: saline sonified) 109 % of control; (dose: 400.0 mg/kg/injection, schedule: Q04DX003 (ip), vehicle: saline sonified) 108 % of control.

On to `O=C(CCCCCNC(=O)OCc1ccccc1)Oc1ccc([N+](=O)[O-])cc1`, for which the T/C under setting [5] was 101 % of control, the T/C under setting [7] was 96 % of control and the T/C under setting [9] is 94 % of control.

With `O=C(O)C(=O)O.[Mn]`, the T/C reads like this: under setting [5], 100 % of control; under setting [7], 100 % of control; under setting [9], 96 % of control.

For the molecule `CC(=O)C1C(=O)CC(C)(O)C(C(C)=O)C1c1ccccc1` (stereo not given), the T/C reads like this: under setting [4], 93 % of control; under setting [5], 101 % of control; under setting [6], 96 % of control; under setting [7], 101 % of control; under setting [8], 94 % of control; under setting [9], 103 % of control.

As to `O=C(COc1ccccc1)NCc1ccc(Cl)cc1`, the T/C is 98 % of control under setting [5], 98 % of control under setting [7] and 96 % of control under setting [9].

On to `COc1cccc2c1C(=O)c1c(O)c3c(c(O)c1C2=O)C[C@@](O)(C(=O)CO)C[C@@H]3OC1CC(N)C(OC)C(C)O1` (stereo not given in full), for which the T/C by setting is: (dose: 0.54 mg/kg/injection, schedule: Q01DX009 (ip), vehicle: saline) 159 % of control; under setting [10], 207 % of control; (dose: 0.9 mg/kg/injection, schedule: Q01DX009 (ip), vehicle: saline) 229 % of control; under setting [11], 319 % of control; (dose: 1.3 mg/kg/injection, schedule: Q01DX001 (ip), vehicle: saline) 161 % of control; (dose: 1.8 mg/kg/injection, schedule: Q01DX009 (ip), vehicle: saline) 250 % of control. The T/C (dose: 2.16 mg/kg/injection, schedule: Q01DX001 (ip), vehicle: saline) was 161 % of control; the T/C (dose: 3.0 mg/kg/injection, schedule: Q01DX009 (ip), vehicle: saline) was 93 % of control; the T/C (dose: 3.6 mg/kg/injection, schedule: Q01DX001 (ip), vehicle: saline) was 168 % of control and 170 % of control; the T/C (dose: 6.0 mg/kg/injection, schedule: Q01DX001 (ip), vehicle: saline) is 189 % of control and 353 % of control; the T/C (dose: 10.0 mg/kg/injection, schedule: Q01DX001 (ip), vehicle: saline) is 187 % of control and 260 % of control.

`C=C(Br)CNC(=O)C(F)(F)F`: the T/C runs as follows: (dose: 6.25 mg/kg/injection, schedule: Q01DX009 (ip), vehicle: saline) 100 % of control; (dose: 6.25 mg/kg/injection, schedule: Q04DX003 (ip), vehicle: saline) 96 % of control; (dose: 12.5 mg/kg/injection, schedule: Q01DX009 (ip), vehicle: saline) 102 % of control; (dose: 12.5 mg/kg/injection, schedule: Q04DX003 (ip), vehicle: saline) 98 % of control; (dose: 25.0 mg/kg/injection, schedule: Q01DX009 (ip), vehicle: saline) 108 % of control; (dose: 25.0 mg/kg/injection, schedule: Q04DX003 (ip), vehicle: saline) 93 % of control.

On to `OCC1C=CCC=C1`, for which the T/C runs as follows: under setting [12], 95 % of control; under setting [13], 107 % of control; under setting [14], 101 % of control.

For the molecule `CCCCCCCCCCCCC1C(=O)NC(=O)NC1=O`, the T/C runs as follows: under setting [15], 100 % of control; under setting [16], 99 % of control; under setting [17], 97 % of control.

As to `C=Cc1cnc([N+](=O)[O-])n1C`, the T/C by setting is: (dose: 12.5 mg/kg/injection, schedule: Q01DX009 (ip), vehicle: Klucel (hydroxypropylcellulose) (HPC)) 103 % of control; (dose: 25.0 mg/kg/injection, schedule: Q01DX009 (ip), vehicle: Klucel (hydroxypropylcellulose) (HPC)) 101 % of control; (dose: 50.0 mg/kg/injection, schedule: Q01DX009 (ip), vehicle: Klucel (hydroxypropylcellulose) (HPC)) 101 % of control; (dose: 100.0 mg/kg/injection, schedule: Q01DX009 (ip), vehicle: Klucel (hydroxypropylcellulose) (HPC)) 103 % of control; (dose: 200.0 mg/kg/injection, schedule: Q01DX009 (ip), vehicle: Klucel (hydroxypropylcellulose) (HPC)) 101 % of control.

Consider `COC(=O)c1cc(NC(=O)Nc2cc([N+](=O)[O-])ccc2Cl)cc(C(=O)OC)c1`, for which the T/C is 92 % of control (dose: 50.0 mg/kg/injection, schedule: Q01DX001 (ip), vehicle: saline); 86 % of control and 94 % of control (dose: 100.0 mg/kg/injection, schedule: Q01DX001 (ip), vehicle: saline); 89 % of control and 95 % of control under setting [4]; 96 % of control (dose: 100.0 mg/kg/injection, schedule: Q04DX002 (ip), vehicle: saline); 95 % of control (dose: 100.0 mg/kg/injection, schedule: Q04DX003 (ip), vehicle: saline); 89 % of control (dose: 200.0 mg/kg/injection, schedule: Q01DX001 (ip), vehicle: saline). In addition, the T/C was 95 % of control and 102 % of control under setting [6]; 93 % of control and 107 % of control (dose: 200.0 mg/kg/injection, schedule: Q04DX002 (ip), vehicle: saline); 102 % of control (dose: 200.0 mg/kg/injection, schedule: Q04DX003 (ip), vehicle: saline); 88 % of control (dose: 400.0 mg/kg/injection, schedule: Q01DX001 (ip), vehicle: saline); 102 % of control and 103 % of control under setting [8]; 91 % of control and 96 % of control (dose: 400.0 mg/kg/injection, schedule: Q04DX002 (ip), vehicle: saline). Moreover, for the setting “dose: 400.0 mg/kg/injection, schedule: Q04DX003 (ip), vehicle: saline”, the T/C is 96 % of control.

Turning to `O=C(C(=O)c1ccccc1)c1ccccc1`, the T/C runs as follows: under setting [12], 100 % of control; under setting [13], 101 % of control; under setting [14], 108 % of control.

`O=c1[nH]cnc2c1CN(c1ccc(Cl)cc1)C2`: the T/C under setting [15] is 101 % of control, the T/C under setting [16] is 90 % of control and the T/C under setting [17] is 93 % of control.

As for `CC(C)(CO)N=Cc1ccccc1F`, the T/C was 97 % of control (dose: 75.0 mg/kg/injection, schedule: Q01DX001 (ip), vehicle: other); 96 % of control (dose: 150.0 mg/kg/injection, schedule: Q01DX001 (ip), vehicle: other); 93 % of control (dose: 300.0 mg/kg/injection, schedule: Q01DX001 (ip), vehicle: other).
